Source: patent US12338484B2, “FRET biosensor for detecting and reporting NAD+/NADH ratio changes” (Sartorius BioAnalytical Instruments, Inc., priority 2022, dated 2025)

Assay: Performance of initial constructs under dual-excitation FRET signal collection mode
Type: biochemical
Source text: Constructs #10 and #14 in Table 3 were used to generate protein libraries. […] This is evidenced by the fact that all clones chosen from the libraries to proceed with have in vitro a substantial increase in signal window, compared to the original template protein (constructs #10 or #14). These increases are also roughly similar fold-wise between the numbers obtained in bacterial lysate screening and in the process of in vitro characterization.

## Rex(A)-cpmEGFP(173/174)-Rex(B)-mKOk [Construct #12]
  Performance under dual-excitation FRET signal collection mode: poor performance
